Patent US7799821B2, “Therapeutic compounds” (Allergan, Inc., priority 2004, dated 2010)
pEC50, pKi: −log10 of the molar value. Like-named read-outs stand apart in the source and are kept apart here.

Legend:
hEP2/Gqs5 = biological target: T1, hEP2/Gqs5 (Homo sapiens, UniProt P43116); experiment: FLIPR calcium signal, hEP2; assay type: cell-based
T1 construct: expressed in transfected cells; host or cells: HEK-293(EBNA)
In short: (§1)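 HEK-293(EBNA) cells stably expressing the recombinant human receptor were loaded with 2 μM Fluo-4 AM for 45 min and read on FLIPR at 37° C in HBSS-HEPES pH 7.4. Peak fluorescence rise was expressed relative to buffer and standard agonist controls (BW245C, PGE2 or U-46619 by receptor); compounds were run 10^−5 to 10^−11 M in duplicate, n≧3.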

hEP3A/Gqi5 = biological target: T2, hEP3A/Gqi5 (Homo sapiens, UniProt P43115); experiment: FLIPR calcium signal, hEP3A; assay type: cell-based; conditions: for pEC50: read-out: Other Receptors EC50 hEP3A
T2 construct: expressed in transfected cells; host or cells: HEK-293(EBNA)
T2 sequence (P43115 1-390): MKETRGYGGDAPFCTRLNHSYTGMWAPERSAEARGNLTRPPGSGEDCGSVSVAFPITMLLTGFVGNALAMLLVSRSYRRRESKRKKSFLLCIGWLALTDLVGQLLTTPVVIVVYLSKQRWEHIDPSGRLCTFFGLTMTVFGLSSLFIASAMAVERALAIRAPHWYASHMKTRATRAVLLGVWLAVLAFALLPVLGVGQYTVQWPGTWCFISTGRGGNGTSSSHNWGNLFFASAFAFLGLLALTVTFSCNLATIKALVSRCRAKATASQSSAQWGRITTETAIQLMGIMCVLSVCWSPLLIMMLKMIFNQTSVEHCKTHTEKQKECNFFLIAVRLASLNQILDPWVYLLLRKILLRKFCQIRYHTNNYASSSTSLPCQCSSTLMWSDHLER
In short: as §1

human EP2 receptors = biological target: T3, human EP2 receptors (Homo sapiens, UniProt P43116); experiment: Competition radioligand binding ([3H]PGE2), EP2; conditions: for pKi: unit inferred
T3 construct: expressed in transfected cells; host or cells: HEK 293

hEP4/Gqs5 = biological target: T4, hEP4/Gqs5 (Homo sapiens, UniProt P35408); experiment: FLIPR calcium signal, hEP4; assay type: cell-based; conditions: for pEC50: unit inferred, read-out: EP4 data flipr EC50
T4 construct: expressed in transfected cells; host or cells: HEK-293(EBNA)
In short: as §1

[1] = unit inferred, other columns of the table in nM, read-out: EP2 data flipr EC50
[2] = pH 6.0, read-out: EP2 data Ki pH 6.0

T4 sequence (P35408 whole entry): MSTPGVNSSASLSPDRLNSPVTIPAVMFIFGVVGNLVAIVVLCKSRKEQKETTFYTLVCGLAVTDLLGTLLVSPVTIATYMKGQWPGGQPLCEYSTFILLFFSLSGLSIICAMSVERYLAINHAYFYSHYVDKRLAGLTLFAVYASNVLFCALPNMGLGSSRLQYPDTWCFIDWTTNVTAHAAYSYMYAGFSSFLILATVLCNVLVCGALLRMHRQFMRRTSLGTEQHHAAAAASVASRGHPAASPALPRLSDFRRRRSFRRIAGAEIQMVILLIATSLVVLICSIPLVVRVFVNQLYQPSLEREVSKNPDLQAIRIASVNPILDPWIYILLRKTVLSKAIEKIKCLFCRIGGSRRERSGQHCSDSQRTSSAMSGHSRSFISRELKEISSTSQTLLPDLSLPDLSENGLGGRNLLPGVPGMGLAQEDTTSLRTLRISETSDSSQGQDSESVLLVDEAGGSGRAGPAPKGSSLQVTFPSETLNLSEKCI
T3 sequence (P43116 whole entry): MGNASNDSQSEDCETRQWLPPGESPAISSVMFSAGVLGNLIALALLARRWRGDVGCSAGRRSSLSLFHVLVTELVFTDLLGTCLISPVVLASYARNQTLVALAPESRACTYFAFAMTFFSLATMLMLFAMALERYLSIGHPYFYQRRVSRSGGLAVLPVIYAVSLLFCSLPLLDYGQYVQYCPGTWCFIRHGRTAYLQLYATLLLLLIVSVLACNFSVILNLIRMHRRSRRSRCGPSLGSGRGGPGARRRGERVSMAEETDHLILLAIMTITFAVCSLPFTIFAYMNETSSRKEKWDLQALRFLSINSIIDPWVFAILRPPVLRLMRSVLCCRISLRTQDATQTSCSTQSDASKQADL
T1 sequence (P43116 whole entry): as above

Row | EC50 (hEP2/Gqs5; [1]) [nM] | pEC50 (hEP3A/Gqi5) | pKi (human EP2 receptors; read-out: EP2 data Ki) | pEC50 (hEP4/Gqs5) | EC50 (hEP2/Gqs5; Table 3, third part, value outside parentheses, read-out: Ca2+ Signal-EC50 (nM) EP2) [nM] | EC50 (hEP3A/Gqi5; Table 3, third part, read-out: Ca2+ Signal-EC50 (nM) EP3) [nM] | Ki (human EP2 receptors; Table 3, third part, read-out: BINDING-Ki (nM) EP2) [nM] | Ca2+ Signal-EC50 (nM) EP4 (hEP4/Gqs5; Table 3, third part) | pKi (human EP2 receptors; [2]) | SMILES
1 | 5 | 7.48 | 8.10 | – | – | – | – | – | – | CCCCCCC(O)c1ccc(N2C(=O)CC[C@@H]2CCCc2ccc(C(=O)O)s2)cc1 (single isomer, unassigned) [drawing 156]
2 | 4120 | 4.71 | < 5.00 | < 5.00 | – | – | – | – | – | CC(C)(C)c1ccc(N2C(=O)CC[C@@H]2CCCCCCC(=O)O)cc1
3 | 134 | 7.15 | 6.64 | – | – | – | – | – | – | CCCCCCC(O)c1ccc(N2C(=O)CC[C@@H]2COCc2ccc(C(=O)O)s2)cc1 (single isomer, unassigned) [drawing 152]
4 | 62 | 6.82 | 6.46 | < 5.00 | – | – | – | – | – | CCCCCC(O)c1ccc(N2C(=O)CC[C@@H]2COCc2ccc(C(=O)O)s2)cc1 (single isomer, unassigned) [drawing 148]
5 | 5 | 6.81 | 7.64 | – | – | – | – | – | – | CCCCCC(O)c1ccc(N2C(=O)CC[C@@H]2CCCc2ccc(C(=O)O)s2)cc1 (stereo partly drawn) [drawing 145]
6 | 15 | 5.92 | 6.94 | < 5.00 | – | – | – | – | – | CCCCCC(O)c1ccc(N2C(=O)CC[C@@H]2COCc2ccc(C(=O)O)s2)cc1 (single isomer, unassigned) [drawing 177]
7 | 16 | 8.15 | 7.92 | – | – | – | – | – | – | CCCCCCC(O)c1ccc(N2C(=O)CC[C@@H]2CCCc2ccc(C(=O)O)s2)cc1 (single isomer, unassigned) [drawing 183]
8 | – | 8.15 | 7.92 | – | – | – | – | – | – | CCCCCCC(O)c1ccc(N2C(=O)CC[C@@H]2CCCc2ccc(C(=O)O)s2)cc1 (single isomer, unassigned) [drawing 155]
9 | 5 | 7.48 | 8.10 | – | – | – | – | – | – | CCCCCCC(O)c1ccc(N2C(=O)CC[C@@H]2CCCc2ccc(C(=O)O)s2)cc1 (single isomer, unassigned) [drawing 184]
10 | – | – | – | – | 34 | 10000 | 1250 | not active | – | CCCCCC(C)c1ccc([C@@H]2[C@@H](C/C=C\CCCC(=O)O)[C@H](C#N)C[C@H]2C)cc1 (stereo partly drawn)
11 | 134 | 7.15 | 6.64 | – | – | – | – | – | – | CCCCCC(O)c1ccc(N2C(=O)CC[C@@H]2CCCc2ccc(C(=O)O)s2)cc1 (single isomer, unassigned) [drawing 180]
12 | 5 | 6.81 | 7.64 | – | – | – | – | – | – | CCCCCC(O)c1ccc(N2C(=O)CC[C@@H]2CCCc2ccc(C(=O)O)s2)cc1 (stereo partly drawn) [drawing 173]
13 | 62 | 6.82 | 6.46 | < 5.00 | – | – | – | – | – | CCCCCC(O)c1ccc(N2C(=O)CC[C@@H]2COCc2ccc(C(=O)O)s2)cc1 (single isomer, unassigned) [drawing 176]
14 | 6 | 7.92 | 7.68 | < 5.00 | – | – | – | – | – | CCCCCC(O)c1ccc(N2C(=O)CC[C@@H]2CCCc2ccc(C(=O)O)s2)cc1 (single isomer, unassigned) [drawing 178]
15 | 16 | 5.63 | 7.51 | < 5.00 | – | – | – | – | – | CCCCCC(=O)c1ccc(N2C(=O)CC[C@@H]2CCCc2ccc(C(=O)O)s2)cc1
16 | 1340 | 4.72 | 6.30 | < 5.00 | – | – | – | – | 7.57 | CC(C)(C)c1ccc(N2C(=O)CC[C@@H]2COCc2ccc(C(=O)O)s2)cc1
17 | 1.6 | 6.81 | 7.82 | < 5.00 | – | – | – | – | – | CCCCCC(O)c1ccc(N2C(=O)CC[C@@H]2CCCc2ccc(C(=O)O)s2)cc1 (single isomer, unassigned) [drawing 179]
18 | 1.6 | 6.81 | 7.82 | < 5.00 | – | – | – | – | – | CCCCCC(O)c1ccc(N2C(=O)CC[C@@H]2CCCc2ccc(C(=O)O)s2)cc1 (single isomer, unassigned) [drawing 151]
19 | 442 | < 5.00 | 5.40 | < 5.00 | – | – | – | – | 6.72 | CC(C)(C)c1ccc(N2C(=O)CC[C@@H]2COCc2ccc(C(=O)O)o2)cc1
